Tests used:
[1] = Solubility studies (turbidity or clarity of the resultant solution); type: physicochemical; details: duloxetine present along with one or more cyclodextrin or derivatives, as physical admixture or complex
Description: Weighed amount of duloxetine hydrochloride was dispersed in required quantity of water at room temperature. To the above dispersion sodium bicarbonate, propylene glycol, sodium lauryl sulphate or Hydroxypropyl Beta-cyclodextrin was added in requisite amount as specified in Table 5.

[2] = water; cited from earlier work
[3] = acidic environment of gastrointestinal tract; cited from earlier work

**Q.** With `CNCC[C@H](Oc1cccc2ccccc12)c1cccs1` [Duloxetine] as the molecule, how does the “Solubility of duloxetine in presence of cyclodextrin” value [1] read?
**A.** significant increase in solubility

**Q.** What about the Aqueous solubility [2] of the same molecule?
**A.** slightly soluble in water

**Q.** And the Acid stability [3]?
**A.** acid labile

— US8758779B2, “Pharmaceutical composition of duloxetine” (Wockhardt Ltd., priority 2009, dated 2014)
